Results taken from patent US20240150321A1, “PYRAZOLYLSULFONAMIDE COMPOUNDS AND THEIR USE IN THERAPY” (HOTSPOT THERAPEUTICS, INC., priority 2022, published 2024).

Experiments:
[1] = system: NF-kB reporter in Jurkat cells; assay: NF-kB reporter assay in Jurkat cells stimulated with aCD3/aCD28/PMA; assay type: cell-based; settings: Homo sapiens; Jurkat cells, 1 hr compound pre-incubation, aCD3/aCD28/PMA stimulation 4 hr, One-Glo readout; read-out: NF-kB Reporter Assay IC50
How it was run: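 Jurkat cells (25,000/well, serum-free RPMI) were pre-incubated 1 h at 37° C with serially diluted compound, then stimulated 4 h with aCD3/aCD28/PMA at final […]. NF-kB reporter activity was read by One-Glo luminescence; IC50 values reported.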

Avi-tagged FL MALT-1 = Avi-tagged FL MALT-1 (Homo sapiens (Human), UniProt Q9UDY8); assay: MALT-1 Fluorogenic Peptide Cleavage Assay (MALT1 inhibition assay); assay type: biochemical; settings: Ac-LRSR-AMC peptide substrate, 30 min pre-incubation, 90 min reaction at room temperature
How it was run: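 Full-length Avi-tagged human MALT-1 (40 nM working stock) pre-incubated 30 min at RT with compound in 25 mM HEPES pH 6.89, 660 mM sodium citrate, 1 mM TCEP, […], 0.05% CHAPS, 2% DMSO. Ac-LRSR-AMC added at Km (50 μM working stock) or 10×Km (280 μM working stock); 90 min at RT, AMC fluorescence (ex 342/em 441 nm), IC50 from % inhibition curves.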

Avi-tagged FL MALT-1, sequence (Q9UDY8 whole entry): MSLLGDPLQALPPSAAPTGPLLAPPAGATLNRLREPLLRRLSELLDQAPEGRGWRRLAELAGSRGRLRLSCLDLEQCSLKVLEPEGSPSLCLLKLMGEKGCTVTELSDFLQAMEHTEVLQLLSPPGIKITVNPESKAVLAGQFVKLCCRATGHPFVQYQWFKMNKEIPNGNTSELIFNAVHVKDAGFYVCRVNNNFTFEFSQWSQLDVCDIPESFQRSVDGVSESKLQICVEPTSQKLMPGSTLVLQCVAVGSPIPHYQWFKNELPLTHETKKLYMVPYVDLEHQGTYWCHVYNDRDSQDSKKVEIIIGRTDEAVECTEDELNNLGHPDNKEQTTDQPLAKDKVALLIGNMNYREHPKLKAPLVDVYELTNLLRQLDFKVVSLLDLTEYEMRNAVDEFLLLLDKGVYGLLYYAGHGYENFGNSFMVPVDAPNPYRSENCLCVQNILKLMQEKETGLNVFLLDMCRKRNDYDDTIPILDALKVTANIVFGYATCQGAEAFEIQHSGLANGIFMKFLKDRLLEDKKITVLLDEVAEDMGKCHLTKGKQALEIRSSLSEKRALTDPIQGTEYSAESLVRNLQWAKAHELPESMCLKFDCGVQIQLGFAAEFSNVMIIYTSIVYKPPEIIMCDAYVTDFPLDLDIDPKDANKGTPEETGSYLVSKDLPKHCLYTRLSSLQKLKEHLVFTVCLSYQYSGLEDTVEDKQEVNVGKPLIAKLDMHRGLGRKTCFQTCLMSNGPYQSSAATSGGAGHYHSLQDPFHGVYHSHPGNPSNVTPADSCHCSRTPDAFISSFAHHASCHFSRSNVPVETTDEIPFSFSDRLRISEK

SMILES | IC50 [1] [µM] | IC50 (Avi-tagged FL MALT-1) [µM]
CCc1ccc2cnn(C)c2c1NS(=O)(=O)c1cnn(-c2cc(OC)ccn2)c1 [Compound I-44, N-(6-Ethyl-1-Methyl-1H-Indazol-7-yl)-1-(4-Methoxypyridin-2-yl)-1H-Pyrazole-4-Sulfonamide] | > 2.5 | > 2.5
Cc1n[nH]c2cccc(NS(=O)(=O)c3cnn(-c4ccc(C(F)(F)F)cn4)c3)c12 [Compound I-45, N-(3-Methyl-1H-Indazol-4-yl)-1-(5-(Trifluoromethyl)Pyridin-2-yl)-1H-Pyrazole-4-Sulfonamide] | < 0.4 | > 2.5
Cn1cc2ccc(Cl)c(NS(=O)(=O)c3cnn(-c4ccnc(C(F)(F)F)c4)c3)c2n1 [Compound I-47, N-(6-Chloro-2-Methyl-2H-Indazol-7-yl)-1-(2-(Trifluoromethyl) Pyridin-4-yl)-1H-Pyrazole-4-Sulfonamide] | > 2.5 | > 2.5
CCc1ccc2cn(C)nc2c1NS(=O)(=O)c1cnn(-c2ccnc(C(F)(F)F)c2)c1 [Compound I-48, N-(6-Ethyl-2-Methyl-2H-Indazol-7-yl)-1-(2-(Trifluoromethyl) Pyridin-4-yl)-1H-Pyrazole-4-Sulfonamide] | > 2.5 | ≤ 0.4
Cc1cc(NS(=O)(=O)c2cnn(-c3ccnc(C(F)(F)F)c3)c2)c2c(cnn2C)c1 [Compound I-49, N-(1,5-Dimethyl-1H-Indazol-7-yl)-1-(2-(Trifluoromethyl) Pyridin-4-yl)-1H-Pyrazole-4-Sulfonamide] | > 2.5 | > 2.5
COc1ccc2cn(C)nc2c1NS(=O)(=O)c1cnn(-c2ccnc(C(F)(F)F)c2)c1 [Compound I-50, N-(6-Methoxy-2-Methyl-2H-Indazol-7-yl)-1-(2-(Trifluoromethyl)Pyridin-4-yl)-1H-Pyrazole-4-Sulfonamide] | > 2.5 | 0.4 to 1
Cc1n[nH]c2cccc(NS(=O)(=O)c3cnn(-c4ccnc(C(F)(F)F)c4)c3)c12 [Compound I-51, N-(3-Methyl-1H-Indazol-4-yl)-1-(2-(Trifluoromethyl)Pyridin-4-yl)-1H-Pyrazole-4-Sulfonamide] | > 2.5 | > 2.5
COc1ccc2nnn(C)c2c1NS(=O)(=O)c1cnn(-c2ccnc(C(F)(F)F)c2)c1 [Compound I-52] | 1 to 2.5 | > 2.5
Cn1ncc2ccc(C3CC3)c(NS(=O)(=O)c3cnn(-c4cc(C(F)(F)F)ncn4)c3)c21 [Compound I-53, N-(6-Cyclopropyl-1-Methyl-1H-Indazol-7-yl)-1-(6-(Trifluoromethyl)Pyrimidin-4-yl)-1H-Pyrazole-4-Sulfonamide] | < 0.4 | ≤ 0.4
COc1ccc2cnn(C)c2c1NS(=O)(=O)c1cnn(-c2cc(Cl)ccn2)c1 [Compound I-54] | < 0.4 | ≤ 0.4
Cn1ncc2ccc(OC3CC3)c(NS(=O)(=O)c3cnn(-c4ccnc(C(F)(F)F)c4)c3)c21 [Compound I-55, N-(6-Cyclopropoxy-1-Methyl-1H-Indazol-7-yl)-1-(2-(Trifluoromethyl)Pyridin-4-yl)-1H-Pyrazole-4-Sulfonamide] | 1 to 2.5 | ≤ 0.4
CCc1ccc2cnn(C)c2c1NS(=O)(=O)c1cnn(-c2cc(C3CC3)ccn2)c1 [Compound I-56, 1-(4-Cyclopropylpyridin-2-yl)-N-(6-Ethyl-1-Methyl-1H-Indazol-7-yl)-1H-Pyrazole-4-Sulfonamide] | < 0.4 | ≤ 0.4
COc1ccc2cnn(C)c2c1NS(=O)(=O)c1cnn(-c2cc(C3CC3)ccn2)c1 [Compound I-57, 1-(4-Cyclopropylpyridin-2-yl)-N-(6-Methoxy-1-Methyl-1H-Indazol-7-yl)-1H-Pyrazole-4-Sulfonamide] | < 0.4 | ≤ 0.4
COc1cc(NS(=O)(=O)c2cnn(-c3ccnc(C(F)(F)F)c3)c2)c2c(cnn2C)c1 [Compound I-58, N-(5-Methoxy-1-Methyl-1H-Indazol-7-yl)-1-(2-(Trifluoromethyl)Pyridin-4-yl)-1H-Pyrazole-4-Sulfonamide] | > 2.5 | > 2.5
Cc1ccc2cnn(C)c2c1NS(=O)(=O)c1cnn(-c2ccnc(C(F)(F)F)c2)c1 [Compound I-59, N-(1,6-Dimethyl-1H-Indazol-7-yl)-1-(2-(Trifluoromethyl)Pyridin-4-yl)-1H-Pyrazole-4-Sulfonamide] | 0.4 to 1 | ≤ 0.4
Cc1ccc2cnn(C)c2c1NS(=O)(=O)c1cnn(-c2cc(C(F)(F)F)ccn2)c1 [Compound I-60, N-(1,6-Dimethyl-1H-Indazol-7-yl)-1-(4-(Trifluoromethyl) Pyridin-2-yl)-1H-Pyrazole-4-Sulfonamide] | < 0.4 | ≤ 0.4

SMILES | IC50 [1] [µM] | IC50 (Avi-tagged FL MALT-1) [µM]
CCc1ccc2cnn(C)c2c1NS(=O)(=O)c1cnn(-c2ccnc(OC(F)(F)F)c2)c1 [Compound I-61, N-(6-Ethyl-1-Methyl-1H-Indazol-7-yl)-1-(2-(Trifluoromethoxy) Pyridin-4-yl)-1H-Pyrazole-4-Sulfonamide] | 1 to 2.5 | 1 to 2.5
CCc1ccc2[nH]nc(C)c2c1N(C)S(=O)(=O)c1cnn(-c2ccnc(C(F)(F)F)c2)c1 [Compound I-62, N-(5-Ethyl-3-Methyl-1H-Indazol-4-yl)-N-Methyl-1-(2-(Trifluoromethyl)Pyridin-4-yl)-1H-Pyrazole-4-Sulfonamide] | 0.4 to 1 | ≤ 0.4
Cc1ccnc(-n2cc(S(=O)(=O)Nc3cccc4[nH]nc(C)c34)cn2)c1 [Compound I-63, N-(3-Methyl-1H-Indazol-4-yl)-1-(4-Methylpyridin-2-yl)-1H-Pyrazole-4-Sulfonamide] | < 0.4 | > 2.5
Cc1n[nH]c2cccc(N(C)S(=O)(=O)c3cnn(-c4ccnc(C(F)(F)F)c4)c3)c12 [Compound I-64, N-Methyl-N-(3-Methyl-1H-Indazol-4-yl)-1-(2-(Trifluoromethyl)Pyridin-4-yl)-1H-Pyrazole-4-Sulfonamide] | > 2.5 | 1 to 2.5
Cc1n[nH]c2cccc(N(C)S(=O)(=O)c3cnn(-c4cc(C(F)(F)F)ccn4)c3)c12 [Compound I-65, N-Methyl-N-(3-Methyl-1H-Indazol-4-yl)-1-(4-(Trifluoromethyl)Pyridin-2-yl)-1H-Pyrazole-4-Sulfonamide] | 0.4 to 1 | 0.4 to 1
Cc1ccnc(-n2cc(S(=O)(=O)N(C)c3cccc4[nH]nc(C)c34)cn2)c1 [Compound I-66, N-Methyl-N-(3-Methyl-1H-Indazol-4-yl)-1-(4-Methylpyridin-2-yl)-1H-Pyrazole-4-Sulfonamide] | > 2.5 | > 2.5
Cc1ccc2[nH]nc(C)c2c1NS(=O)(=O)c1cnn(-c2cc(C(F)(F)F)ccn2)c1 [Compound I-67] | < 0.4 | ≤ 0.4
C=C(CO)c1ccnc(-n2cc(S(=O)(=O)Nc3c(OC)ccc4cnn(C)c34)cn2)c1 [Compound I-68, 1-(4-(3-Hydroxyprop-1-EN-2-yl)Pyridin-2-yl)-N-(6-Methoxy-1-Methyl-1H-Indazol-7-yl)-1H-Pyrazole-4-Sulfonamide] | < 0.4 | ≤ 0.4
COc1ccc2cnn(C)c2c1NS(=O)(=O)c1cnn(-c2cc(C3(F)COC3)ccn2)c1 [Compound I-69, 1-(4-(3-Fluorooxetan-3-yl)Pyridin-2-yl)-N-(6-Methoxy-1-Methyl-1H-Indazol-7-yl)-1H-Pyrazole-4-Sulfonamide] | < 0.4 | ≤ 0.4
[2H]C([2H])([2H])Oc1ccc2cnn(C)c2c1NS(=O)(=O)c1cnn(-c2cc(C(F)(F)F)ccn2)c1 [Compound I-70, N-(6-(Methoxy-D3)-1-Methyl-1H-Indazol-7-yl)-1-(4-(Trifluoromethyl)Pyridin-2-yl)-1H-Pyrazole-4-Sulfonamide] | < 0.4 | ≤ 0.4
[2H]C([2H])([2H])c1ccc2cnn(C)c2c1NS(=O)(=O)c1cnn(-c2cc(C(F)(F)F)ccn2)c1 [Compound I-71, N-(1-Methyl-6-(Methyl-D3)-1H-Indazol-7-yl)-1-(4-(Trifluoromethyl)Pyridin-2-yl)-1H-Pyrazole-4-Sulfonamide] | < 0.4 | ≤ 0.4
COc1ccc2cnn(C)c2c1NS(=O)(=O)c1cnn(-c2cc(C(F)(F)F)ccn2)c1 [Compound I-72, N-(6-Methoxy-1-(Methyl-D3)-1H-Indazol-7-yl)-1-(4-(Trifluoromethyl)Pyridin-2-yl)-1H-Pyrazole-4-Sulfonamide] | < 0.4 | ≤ 0.4
Cc1n[nH]c2cccc(NS(=O)(=O)c3cnn(-c4cc(C(F)(F)F)ccn4)c3)c12 [Compound I-73, N-(3-Methyl-1H-Indazol-4-yl)-1-(4-(Trifluoromethyl)Pyridin-2-yl)-1H-Pyrazole-4-Sulfonamide] | < 0.4 | 1 to 2.5
Cc1ccc2[nH]nc(C)c2c1NS(=O)(=O)c1cnn(-c2ccnc(C(F)(F)F)c2)c1 [Compound I-74, N-(3,5-Dimethyl-1H-Indazol-4-yl)-1-(2-(Trifluoromethyl)Pyridin-4-yl)-1H-Pyrazole-4-Sulfonamide] | 1 to 2.5 | ≤ 0.4
Cn1ncc2cccc(NS(=O)(=O)c3cnn(-c4ccnc(C5CC5)c4)c3)c21 [Compound I-75, 1-(2-Cyclopropylpyridin-4-yl)-N-(1-Methyl-1H-Indazol-7-yl)-1H-Pyrazole-4-Sulfonamide] | 0.4 to 1 | > 2.5
Cn1ncc2cccc(NS(=O)(=O)c3cnn(-c4cc(C5CC5)ccn4)c3)c21 [Compound I-76, 1-(4-Cyclopropylpyridin-2-yl)-N-(1-Methylindazol-7-yl)Pyrazole-4-Sulfonamide] | < 0.4 | 1 to 2.5
